The source of these data is patent US5434133A, “CNP analog peptides and their use” (Suntory Limited, priority 1991, dated 1995).

The test system of experiment [1] is cultured vascular smooth muscle cells (VSMC) derived from the aortas of rats. Kind of experiment: cGMP producing activity in cultured VSMC (cGMP radioimmunoassay). The class given is cell-based, rat. Conditions: for cGMP producing activity (in words): comparison with CNP-22 or α-hANP; for cGMP producing activity (% increase for 1 μm): specific activity compared to 1 μm α-hANP (2000 fmol/400000 cells) = 100, peptide at 1 μm. The procedure:
1-1: Measurement of CGMP Producing Activity
The above-mentioned activity of compounds synthesized according to the present invention was measured by the methods of Hirata et al. (Biochem. Biophys. Res. Commun., 128, 538, 1985) and Scarborough et al. (J. Biol. Chem., 261, 12960, 1986). The cells used were cultured vascular smooth muscle cells (hereunder abbreviated as VSMC) derived from the aortas of rats. From 10^-9 to 10^-6 M of α-hANP or a 20 peptide of interest was incubated together with VSMC and the amount cGMP produced was measured by cGMP radioimmunoassay. Percent maximum reactivity for each peptide, with the value of maximum reactivity for α-hANP being taken as 100%, was used as an indicator of activity.

Experiment [2] shares this test system. Kind of experiment: Cell growth suppressing activity: [3H] thymidine uptake (DNA synthesis inhibition) in VSMC. Conditions: for % Inhibition of 3H-thymidine uptake: 0.1 μm of each peptide, BSMC line stimulated with PDGF (20 ng/ml); for intensity of DNA synthesis / cell growth suppressing action relative to α-hANP: rat VSMC, compared with α-hANP. The class given is cell-based, rat. As for the experimental part: 1-2: Measurement of Cell Growth Suppressing Activity
Cell growth suppressing activity was evaluated in accordance with the method of Kariya et al. (Atherosclerosis, 80, 143-147, 1990) by measuring the uptake of [^3 H] thymidine into cells as an indicator of percent DNA synthesis inhibition using the above-identified VSMC. Cells tuned to a stationary phase were incubated at 37° C. for 14 h with each sample added in the presence of 1% serum or 20 ng/ml of PDGF (platelet derived growth factor). Then, following the addition of 37 kBq/ml of [^3 H] thymidine, the incubation was continued for another 4 h and the radioactivity of [^3 H] thymidine incorporated into the cells was measured. The values of measurement were such that the uptake of [^3 H] thymidine for the case where only 1% serum or PDGF was added in the absence of peptide was taken as 100%, with the percent suppression due to the peptide addition being accordingly calculated.

The test system is the same in experiment [3]. Conditions: Furuya et al. 1990; cited from earlier work.

“Also recorded” adds a separate entry of the source. Where a SMILES comes first, the peptide text is derived from it. Bridges are numbered along the chain shown (N, C = ends). Where no end group is shown, it is not given here.

As for `CC[C@H](C)[C@@H]1NC(=O)[C@H](CCCNC(=N)N)NC(=O)[C@H](CC(=O)O)NC(=O)[C@H](CC(C)C)NC(=O)[C@H](CCCCN)NC(=O)CNC(=O)CNC(=O)[C@H](Cc2ccccc2)NC(=O)[C@@H](NC(=O)CNC(=O)[C@H](CCCCN)NC(=O)[C@H](CO)NC(=O)[C@H](CC(C)C)NC(=O)CN)CSSC[C@@H](C(=O)O)NC(=O)CNC(=O)[C@H](CC(C)C)NC(=O)CNC(=O)[C@H](CO)NC(=O)[C@H](CCSC)NC(=O)[C@H](CO)NC(=O)CNC1=O` [Compound 6] (H-GLSKGCFGGKLDRIGSMSGLGC-OH; disulfide 6-22), the “cGMP producing activity (in words)” value in experiment [1] (rat VSMC) was “lower activity than CNP-22 (but higher than that of α-hANP); also recorded: lower in cGMP producing activity than the other one- and two-residue substituted derivatives”. Besides, in experiment [1], the “cGMP producing activity (% increase for 1 μm)” value is 344%. In experiment [2], the “% Inhibition of 3H-thymidine uptake” value came out at 49%.
As for `CC[C@H](C)[C@@H]1NC(=O)[C@H](CCCNC(=N)N)NC(=O)[C@H](CC(=O)O)NC(=O)[C@H](CCSC)NC(=O)[C@H](CCCNC(=N)N)NC(=O)CNC(=O)CNC(=O)[C@H](Cc2ccccc2)NC(=O)[C@@H](NC(=O)CNC(=O)[C@H](CCCCN)NC(=O)[C@H](CO)NC(=O)[C@H](CC(C)C)NC(=O)CN)CSSC[C@@H](C(=O)O)NC(=O)CNC(=O)[C@H](CC(C)C)NC(=O)CNC(=O)[C@H](CO)NC(=O)[C@H](CCSC)NC(=O)[C@H](CO)NC(=O)CNC1=O` [Compound 14] (H-GLSKGCFGGRMDRIGSMSGLGC-OH; disulfide 6-22), in experiment [1] (rat VSMC), the “cGMP producing activity (in words)” value is listed as “marked drop in activity”. The “cGMP producing activity (% increase for 1 μm)” value in experiment [1] was 23%. Besides, the “% Inhibition of 3H-thymidine uptake” value in experiment [2] is given as 17%.
Turning to `CC[C@H](C)[C@@H]1NC(=O)[C@H](CCCNC(=N)N)NC(=O)[C@H](CC(=O)O)NC(=O)[C@H](CC(C)C)NC(=O)[C@H](CCCCN)NC(=O)[C@H](CC(C)C)NC(=O)CNC(=O)[C@H](Cc2ccccc2)NC(=O)[C@@H](N)CSSC[C@@H](C(=O)N[C@@H](CC(N)=O)C(=O)N[C@@H](CO)C(=O)N[C@@H](Cc2ccccc2)C(=O)N[C@@H](CCCNC(=N)N)C(=O)N[C@@H](Cc2ccc(O)cc2)C(=O)O)NC(=O)CNC(=O)[C@H](CC(C)C)NC(=O)CNC(=O)[C@H](CO)NC(=O)[C@H](CCC(N)=O)NC(=O)[C@H](C)NC(=O)CNC1=O` [Compound 15, [Leu10, Lys11, Leu12] α-hANP (7-28)] (H-CFGLKLDRIGAQSGLGCNSFRY-OH; disulfide 1-17), the “cGMP producing activity (in words)” value in experiment [1] (rat VSMC) was “strong cGMP producing activity at a substantially comparable level to CNP-22”. Further, the “cGMP producing activity relative to α-hANP” value in experiment [1] (rat VSMC, times as high activity as α-hANP) is listed as 4-6 times. Further, the “cGMP producing activity (% increase for 1 μm)” value in experiment [1] was found to be 559%. The “% Inhibition of 3H-thymidine uptake” value in experiment [2] is on record as 72%.
Turning to “CNP: C-type natriuretic peptide, named generically in the text (GLSKGCFGLKLDRIGSMSGLGC; disulfide 6-22 (inferred); ends not checked; UniProt P23582 105-126, looked up) [reference compound]”, in experiment [3], the “increase of intracellular cGMP level in VSMC compared with ANP or BNP” value is “several times as much”. Besides, the “intensity of DNA synthesis / cell growth suppressing action relative to α-hANP” value in experiment [2] was 10 times.
“hCNP-53: human CNP-53, CNP-22 with 31 amino acid residues attached to the N-terminus (DLRVDTKSRAAWARLLQEHPNARKYKGANKKGLSKGCFGLKLDRIGSMSGLGC; disulfide 37-53 (inferred); ends not checked; UniProt P23582 74-126, looked up) [reference compound]”: in experiment [1], the “cGMP producing activity (% increase for 1 μm)” value is 458%. Further, in experiment [2], the “% Inhibition of 3H-thymidine uptake” value was 71% and the “intensity of DNA synthesis / cell growth suppressing action relative to α-hANP” value is recorded as 10 times. Also, the “suppression of DNA synthesis of rat VSMC (in words)” value in experiment [2] (FIGS. 2, 3 and 4) is on record as “suppress the DNA synthesis of rat VSMC in a dose-dependent manner”.
